# Laboratory results from patent publication US20030096782A1, “Expression profiling in the intact human heart” (The Regents of the University of Colorado, priority 2001, published 2003).
# Tested on: subjects with idiopathic dilated cardiomyopathy (IDC)
# Assay: Serial study of subjects with idiopathic dilated cardiomyopathy treated with β-blocking agents or placebo (LVEF / phenotype)
# Format: in vivo, human
# Settings: for phenotype: baseline versus after 6 months of treatment; for left ventricular ejection fraction (LVEF): subjects with baseline IDC, 6-7 month period, change versus baseline
# Experimental: Dynamic expression profiling was performed in the intact human heart in 8 subjects with idiopathic dilated cardiomyopathy (IDC), on RNA extracted from RV septal endomyocardial biopsies performed at baseline and after 6 months treatment with β-blocking agents (n=6) or placebo (n=2). Affmetrix™ U95a GeneChips, which contain 12,625 gene sequences/chip, were used for expression profiling.
# Endomyocardial biopsies were obtained during a 6-7 month period from eight subjects with baseline idiopathic dilated cardiomyopathy (IDC). Of these subjects, six were treated with the β-blocking agents carvedilol and metoprolol, and two were treated with placebo.
# Biopsied samples obtained from these subjects were analyzed by quantitative reverse transcript polymerase chain reaction (QRT PCR), and the mRNAs obtained were further analyzed by Affymetrix Gene chip. Subjects with ideal substantial noise ratios were categorized in the low scaling factor group and those with substantial noise, which compromised quantitation, categorized in the high scaling factor group. Gene expression patterns were further compared between the seven subjects showing improved phenotypes and the one subject showing worsening phenotype. Of the four subjects in the low scaling group showing an improved LVEF, one had received placebo, one carvedilol, and one metoprolol, with the fourth subject treated with placebo showing a decrease LVEF. Of the four subjects in the high scaling group three received carvedilol and one received metoprolol.
# Serial measurements of myocardial gene expression were performed on 4 subjects with […], at baseline and after 6 months of treatment with β-blocking agents (n=2, 1 carvediol and 1 metroprolol) or placebo (n=2). RNA was extracted from endomyocardial biopsy material, and expression profiling was performed via Affymetrix U95a GeneChips. […] In the three subjects who improved, a between-subject anaylsis was performed at baseline, and compared to a within-subject comparison between baseline and end of study.
SMILES,phenotype,left ventricular ejection fraction (LVEF)
COc1ccccc1OCCNCC(O)COc1cccc2[nH]c3ccccc3c12 (stereo not shown) [carvedilol],improvement in phenotype,improved
COCCc1ccc(OCC(O)CNC(C)C)cc1 (stereo not shown) [metoprolol],improvement in phenotype,improved
